Assay results reported in patent US8008251B2, “Macrocyclic inhibitors of hepatitis C virus” (Tibotec Pharmaceuticals Ltd., priority 2005, dated 2011).
Read-outs that look alike come from different tables or passages of the source.

Experiments:
[1] = rcm bond, Hoveyda-Grubbs 1st generation catalyst, 1,2-dichloroethane, 83.0 °C
[2] = In vitro metabolic blocking by ritonavir in human liver microsomes; format: in vitro ADME; details: human liver microsomes 1 mg/ml
Method: Different HCV NS3/4a protease inhibitors were tested in a metabolic blocking experiment using 3 μM test compound together with 10 μM ritonavir acting as booster. Test compounds and ritonavir were added to human liver microsomes (protein concentration 1 mg/ml) suspended in potassium phosphate buffer (pH=7.4), to get final reaction mixture concentrations of 3 μM test compound and 10 μM ritonavir. In the non-boosted parallel reactions, ritonavir was not added. Boiled human liver microsomes were used for blank experiments. After addition (in a 1:3 ratio) of a cofactor mixture consisting of β-nicotinamide adenine dinucleotide phosphate (β-NADP, 0.5 mg/ml, 653.2 μM), D-Glucose-6-phosphate (2 mg/ml, 7.1 mM), Glucose-6-phosphate dehydrogenase (1.5 U/ml) in 2% NaHCO3, the reaction mixture was incubated at 37° C. for 30 or 120 minutes after which the reaction was stopped by increasing the temperature to 95° C. Test compound concentrations were determined using HPLC-MS.
Values are percentages of test compound detected after the indicated incubation times as compared to the initial test compound concentration. Each value is the mean of the results of two independent experiments.

[3] = target: T1, full-length hepatitis C NS3 protease enzyme with NS4A cofactor (HCV NS3/4A protease) (Hepatitis C virus genotype 1a, UniProt P27958); test: Enzymatic inhibition assay of HCV NS3/4A protease; format: biochemical
T1 construct: full-length hepatitis C NS3 protease enzyme
T1 sequence (P27958 1027-1657, other chains not shown): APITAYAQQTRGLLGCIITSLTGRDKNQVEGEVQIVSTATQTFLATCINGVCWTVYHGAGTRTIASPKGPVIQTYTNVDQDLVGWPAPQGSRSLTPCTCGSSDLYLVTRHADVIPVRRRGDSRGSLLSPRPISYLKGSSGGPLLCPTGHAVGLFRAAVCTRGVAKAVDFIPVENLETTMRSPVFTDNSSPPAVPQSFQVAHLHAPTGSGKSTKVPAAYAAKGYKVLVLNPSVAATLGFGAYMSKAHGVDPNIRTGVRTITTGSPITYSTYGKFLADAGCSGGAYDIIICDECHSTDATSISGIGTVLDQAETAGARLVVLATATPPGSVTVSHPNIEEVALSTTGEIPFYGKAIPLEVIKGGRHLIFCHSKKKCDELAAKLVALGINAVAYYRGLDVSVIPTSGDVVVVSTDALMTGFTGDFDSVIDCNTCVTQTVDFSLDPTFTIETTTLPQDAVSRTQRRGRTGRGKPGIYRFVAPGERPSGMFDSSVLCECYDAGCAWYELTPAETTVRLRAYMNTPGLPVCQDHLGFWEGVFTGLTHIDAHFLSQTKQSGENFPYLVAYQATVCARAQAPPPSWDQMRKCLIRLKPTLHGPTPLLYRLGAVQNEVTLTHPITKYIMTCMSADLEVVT
Method: [Landro, Biochemistry, 1997, 36(31): 9340-9348]. […] The solutions were stored at −20° C. between measurements.
[Liu, 1999 Analytical Biochemistry 267 331-335].

[4] = Oral pharmacokinetics in dog with and without ritonavir boosting; format: in vivo, male Beagle dogs; details: single oral 10 mg/kg, boosted with ritonavir (Norvir 100 mg capsule) vs non-boosted
Method: Oral pharmacokinetics of Compound nr. 9 in male Beagle dogs after a single dose at 10 mg/kg, using a formulation in 50% PEG400/water and the influence of “boosting” with 10 mg/kg ritonavir were investigated.
Six male Beagle dogs (body weight 8-10 kg) were randomly divided into 2 groups of 3 animals (boosted and non-boosted). No untreated or vehicle-treated control animals were included. […] Drinking water remained available throughout the experiment.
Dogs from the non-boosted group received a single oral 10 mg/kg dose of Compound nr. 9, formulated as a 5 mg/ml 50% PEG400/water. Dogs from the boosted group received a single soft capsule of Norvir® (ritonavir, 100 mg/capsule), about 30 minutes before single oral dosing with 10 mg/kg of Compound nr. 9. The drug formulations were administered by oral gavage, using a gastric tube.
A 3 ml blood sample was collected at 0.5 h 1 h, 2 h, 4 h, 6 h, 8 h and 24 hours after dosing of Compound nr. 9. Plasma concentrations were determined using HPLC-MS. Results are shown in the table 5 below, expressed as fold change in pharmacokinetic parameter of the boosted group as compared to the non-boosted group.

in vitro = details: human, Caco-2
[5] = test system: HCV replicons (NS3-NS5B regions of HCV type 1b) in Huh-7 luc/neo cells; test: HCV replicon assay (Huh-Luc, luciferase readout); format: cell-based; details: Hepatitis C virus, Huh-7, 72 h, three days incubation, luciferase activity
Method: The in vitro antiviral activity against HCV of the compounds of formula (I) was tested in a cellular HCV replicon system based on Lohmann et al. (1999) Science 285:110-113, with the further modifications described by Krieger et al. (2001), Journal of Virology 75: 4614-4624, which is further exemplified in the examples section. This model, while not a complete infection model for HCV, is widely accepted as the most robust and efficient model of autonomous HCV RNA replication currently available. […] It will be appreciated that it is important to distinguish between compounds that specifically interfere with HCV functions from those that exert cytotoxic or cytostatic effects in the HCV replicon model, and as a consequence cause a decrease in HCV RNA or linked reporter enzyme concentration. Assays are known in the field for the evaluation of cellular cytotoxicity based for example on the activity of mitochondrial enzymes using fluorogenic redox dyes such as resazurin. Furthermore, cellular counter screens exist for the evaluation of non-selective inhibition of linked reporter gene activity, such as firefly luciferase. Appropriate cell types can be equipped by stable transfection with a luciferase reporter gene whose expression is dependent on a constitutively active gene promoter, and such cells can be used as a counter-screen to eliminate non-selective inhibitors.
The compounds of formula (I) were examined for activity in the inhibition of HCV RNA replication in a cellular assay. […] The cellular assay was based on a bicistronic expression construct, as described by Lohmann et al. (1999) Science vol. 285 pp. 110-113 with modifications described by Krieger et al. (2001) Journal of Virology 75: 4614-4624, in a multi-target screening strategy. In essence, the method was as follows.
The assay utilized the stably transfected cell line Huh-7 luc/neo (hereafter referred to as Huh-Luc). This cell line harbors an RNA encoding a bicistronic expression construct comprising the wild type NS3-NS5B regions of HCV type 1b translated from an Internal Ribosome Entry Site (IRES) from encephalomyocarditis virus (EMCV), preceded by a reporter portion (FfL-luciferase), and a selectable marker portion (neo^R, neomycine phosphotransferase). […]
The replicon cells were plated in 384 well plates in the presence of the test and control compounds which were added in various concentrations. Following an incubation of three days, HCV replication was measured by assaying luciferase activity (using standard luciferase assay substrates and reagents and a Perkin Elmer ViewLux™ ultraHTS microplate imager). […] The inhibitory activity of the compound on luciferase activity was monitored on the Huh-Luc cells, enabling a dose-response curve for each test compound.

[6] = reference compounds for permeability assay; cited from earlier work

Row | Structure (SMILES) | Ki [3] | Papp at 120 min, 10 μM (in vitro) | EC50 [5] | also measured
1 | CCOC(=O)C12CC1C=CCCCCCNC(=O)N1CC(Oc3cc(-c4nc(C(C)C)cs4)nc4cc(OC)ccc34)CC1C(=O)N2 (stereo not shown) |  |  |  | ring closure, yield of all isomers ([1]; from C=CCCCCCNC(=O)N1CC(Oc2cc(-c3nc(C(C)C)cs3)nc3cc(OC)ccc23)CC1C(=O)NC1(C(=O)OCC)CC1C=C, 2.2 mM, 16.0 h): 57%
2 | CCOC(=O)C12CC1C=CCCCCN(C)C(=O)N1CC(OC(=O)c3ccc([N+](=O)[O-])cc3)CC1C(=O)N2 (stereo not shown) |  |  |  | ring closure, yield of all isomers ([1]; from C=CCCCCN(C)C(=O)N1CC(OC(=O)c2ccc([N+](=O)[O-])cc2)CC1C(=O)NC1(C(=O)OCC)CC1C=C, 1.93 mM): 74%
3 | CCOC(=O)C12CC1C=CCCCCN(C)C(=O)N1CC(Oc3cc(-c4nc(C(C)C)cs4)nc4cc(OC)ccc34)CC1C(=O)N2 (stereo not shown) |  |  |  | ring closure, yield of all isomers ([1]; from C=CCCCCN(C)C(=O)N1CC(Oc2cc(-c3nc(C(C)C)cs3)nc3cc(OC)ccc23)CC1C(=O)NC1(C(=O)OCC)CC1C=C, 1.45 mM): 74%
4 | COc1ccc2c(O[C@@H]3C[C@H]4C(=O)N[C@]5(C(=O)NS(=O)(=O)C6CC6)C[C@H]5/C=C\CCCCCNC(=O)N4C3)cc(-c3nc(C(C)C)cs3)nc2c1 [Compound 9, N-[18-[2-(4-isopropylthiazol-2-yl)-7-methoxyquinolin-4-yl-oxy]-2,15-dioxo-3,14,16-triazatricyclo[14.3.0.0^4,6]nonadec-7-ene-4-carbonyl]-(cyclopropyl)sulfonamide] | 0.12 nM | 11 ×10⁻⁶ cm/s | 0.007 µM | % Detected Compound, 30′, ritonavir ([2]; 3 μM test compound + 10 μM ritonavir, 30 min): 88%; % Detected Compound, 120′, ritonavir ([2]; 3 μM test compound + 10 μM ritonavir, 120 min): 100%; % Detected Compound, 30′, No Booster ([2]; 3 μM test compound, 30 min, no ritonavir): 44%; % Detected Compound, 120′, No Booster ([2]; 3 μM test compound, 120 min, no ritonavir): 0%; Fold increase in AUC when boosted with ritonavir [4]: 55 fold; Fold increase in Cmax when boosted with ritonavir [4]: 31 fold
5 | COc1ccc2c(O[C@@H]3C[C@H]4C(=O)N[C@]5(C(=O)NS(=O)(=O)C6CC6)C[C@H]5/C=C\CCCCNC(=O)N4C3)cc(-c3nc(C(C)C)cs3)nc2c1 [Compound 26, Cyclopropanesulphonic acid {17-[2-(4-isopropylthiazol-2-yl)-7-methoxyquinolin-4-yloxy]-2,14-dioxo-3,13,15-triaza-tricyclo[13.3.0.0^4,6]-octadec-7-ene-4-carbonyl}-amide] | 0.4 nM | 3.6 ×10⁻⁶ cm/s | 0.0064 µM | 
6 | COc1ccc2c(O[C@@H]3C[C@H]4C(=O)N[C@]5(C(=O)NS(=O)(=O)C6(C)CC6)C[C@H]5/C=C\CCCCNC(=O)N4C3)cc(-c3nc(C(C)C)cs3)nc2c1 [Compound 28, 1-Methyl-cyclopropanesulphonic acid [17-[2-(4-isopropyl-thiazol-2-yl)-7-methoxyquinolin-4-yloxy]-2,14-dioxo-3,13,15-triaza-tricyclo-[13.3.0.0^4,6]octadec-7-ene-4-carbonyl]-amide] | 0.3 nM | 8.6 ×10⁻⁶ cm/s | 0.0023 µM | 
7 | COc1ccc2c(O[C@@H]3C[C@H]4C(=O)N[C@]5(C(=O)NS(=O)(=O)C6(C)CC6)C[C@H]5/C=C\CCCCCNC(=O)N4C3)cc(-c3nc(C(C)C)cs3)nc2c1 [Compound 33, 1-Methyl-cyclopropanesulphonic acid [18-[2-(4-isopropyl-thiazol-2-yl)-7-methoxyquinolin-4-yloxy]-2,15-dioxo-3,14,16-triaza-tricyclo-[14.3.0.0^4,6]nonadec-7-ene-4-carbonyl]-amide] | 0.3 nM | 31 ×10⁻⁶ cm/s | 0.0036 µM | 
8 | N[C@@H](Cc1ccccc1)C(=O)O [L-Phenylalanine] |  |  |  | % absorption in man [6]: 100%
